No end group written: not given here.
Molecular target: T1, recombinant Factor XIII (rFXIIIa) (Homo sapiens, UniProt P00488)
T1 construct: made in house
T1 sequence (P00488 39-732 limits assumed): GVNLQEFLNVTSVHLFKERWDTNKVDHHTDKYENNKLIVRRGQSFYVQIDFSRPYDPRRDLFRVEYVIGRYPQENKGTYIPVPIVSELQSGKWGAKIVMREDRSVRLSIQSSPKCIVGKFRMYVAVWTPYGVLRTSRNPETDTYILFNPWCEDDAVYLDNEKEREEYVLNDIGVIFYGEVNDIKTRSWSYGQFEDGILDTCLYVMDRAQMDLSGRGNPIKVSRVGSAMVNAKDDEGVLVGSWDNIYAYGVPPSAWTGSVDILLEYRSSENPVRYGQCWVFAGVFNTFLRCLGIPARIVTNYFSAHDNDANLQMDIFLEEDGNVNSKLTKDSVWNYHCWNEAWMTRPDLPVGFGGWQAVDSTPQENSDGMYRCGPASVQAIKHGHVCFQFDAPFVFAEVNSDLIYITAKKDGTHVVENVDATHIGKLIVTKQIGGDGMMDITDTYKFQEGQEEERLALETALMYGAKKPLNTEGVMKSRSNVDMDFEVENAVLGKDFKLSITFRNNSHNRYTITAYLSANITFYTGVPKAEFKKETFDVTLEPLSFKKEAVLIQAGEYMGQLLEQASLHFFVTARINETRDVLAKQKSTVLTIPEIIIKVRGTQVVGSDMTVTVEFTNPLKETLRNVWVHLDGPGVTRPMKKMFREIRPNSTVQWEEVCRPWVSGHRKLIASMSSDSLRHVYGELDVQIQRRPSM
Assay: Factor XIII cross-linking assay of test polypeptide substrates (HPLC area % vs time)
Assay type: biochemical
Details: for Monomer Consumption d[S]/dt (rate of substrate utilization) / Crosslinking d(2[S-])/dt (rate of monomer incorporation into dimers) / Hydrolysis d[-NH3]/dt (hydrolysis = deamidation): initial rate, 2mM substrate, 40 ug/ml rFXIIIa (preactivated), 2.0 U/ml Thrombin, 2.5 mM CaCl2, pH 7.4; for Monomer Consumption d[S]/dt (rate of substrate utilization): 125 mM NaCl, 50 mM TrisHCl; for Hydrolysis %: share of hydrolysis (deamidation) relative to hydrolysis plus crosslinking, same reaction conditions
Protocol: Polypeptides are screened for the ability to form transglutaminase-catalyzed cross-links using a cross-linking assay as described in more detail below. […] Each reaction receives 50 mM CaCl2 to a final concentration of 2.5 mM. A negative control for each test substrate is also prepared in which the reaction lacks a transglutaminase (e.g., Factor XIII). A positive control of the fibrinogen polypeptide (The-Ile-Gly-Glu-Gly-Gln-Gln-His-His-Leu-[…]-Gln-Ala-Gly-Asp-Val) is used for each set of reactions. The reactions are initiated by the addition of 40 μg/ml of transglutaminase (e.g., recombinant Factor XIII) followed by 0.1 unit of bovine thrombin (Enzyme Research Laboratories, Inc., South Bend, Ind.) to each solution, except the negative controls. The reactions are incubated in a 37° C. water bath. A time course of 10 μl samples are taken from each reaction at 0 minutes, 30 minutes, 60 minutes, 120 minutes and overnight. The reactions are stopped by boiling for one minute. After the reactions are terminated, each sample is diluted to 50 μl with 40 μl of TBS buffer (120 mM NaCl, 50 mM Tris (pH 7.6)) and the samples are prepared for HPLC analysis.
Each sample is chromatographed on a C-18 reverse phase HPLC column (Vydac, Hesperia, Calif. or the like) using a gradient of 0-40% B in 30 minutes (Solvent A: 0.05% trifluoroacetic acid (TFA) in water and Solvent B: 0.045% TFA in 80% acetonitrile, 20% water) on a Hewlett Packard 1090 Series II HPLC or the like. The signal is detected at a wavelength of 215 nm. The area % of each reaction product is collected and plotted versus time to determine the rates of polypeptide utilization dimer formation and multimer formation. A deamidation ratio is determined by dividing the deamidation rate by the dimerization rate.
The ability of the test polypeptides to form Factor XIII-induced multimers, and the susceptibility of the polypeptides to deamidation were assessed using the method described in detail below.
Approximately 0.5 mg of lyophilized polypeptide was dissolved in 50 mM Tris, 125 mM NaCl (pH 7.6) to give a final concentration of 2 mM by weight. […] Each test polypeptide solution received 50 mM CaCl2 to a final concentration of 2.5 mM. For each reaction, a negative control lacking Factor XIII was included. A positive control of the fibrinogen polypeptide Thr-Ile-Gly-Glu-Gly-Gln-Gln-His-His-Leu-Gly-Gly-Ala-Lys-Gln-Ala-Gly-Asp-Val was used for each set of reactions. The reactions were initiated by the addition of 40 μg/ml of recombinant Factor XIII followed by 0.1 unit of bovine thrombin (Enzyme Research Laboratories, Inc.) to each solution, except the negative controls. The reactions were incubated in a 37° C. water bath. Samples of 10 μl were taken from each reaction at 0 minutes, 30 minutes, 60 minutes, 120 minutes and overnight. The reactions were stopped by boiling for one minutes. The samples were diluted to 50 μl TBS buffer (120 mM NaCl, 50 mM Tris (pH 7.6)), and the samples were prepared for HPLC analysis.
Each reaction was chromatographed on a C-18 reverse phase HPLC column (Vydac, Hesperia, Calif., or the like) using a gradient of 0-40% B in 30 minutes (solvent A: 0.05% TFA in water and Solvent B: 0.045% TFA in 80% acetonitrile/20% water) on a Hewlett Packard 1090 Series II HPLC. The signal was detected at a wavelength of 215 nm. The area % of each reaction product was collected and plotted versus time to determine the rates of polypeptide utilization and dimer formation. A deamidation ratio was determined by dividing the deamidation rate by the dimerization rate. […] The abbreviations used in Table 1 are as follows: d[S]/dt indicates the rate of substrate utilization, d[S2 ]/dt indicates the rate of dimer formation and (-NH2 /S2) indicates the relative rates of deamidation to dimerization. The initial rates were normalized to that of the fibrinogen polypeptide Thr-Ile-Gly-Glu-Gly-Gln-Gln-His-His-Leu-Gly-Gly-Ala-Lys-Gln-Ala-Gly-Asp-Val. […]

Sequence | Monomer Consumption d[S]/dt (rate of substrate utilization) | Crosslinking d(2[S-])/dt (rate of monomer incorporation into dimers) | Hydrolysis d[-NH3]/dt (hydrolysis = deamidation) | Hydrolysis % [%]
TIGEGQQHHLGGAKQAGDV [TIGEGQQHHLGGAKQAGDV, Thr-Ile-Gly-Glu-Gly-Gln-Gln-His-His-Leu-Gly-Gly-Ala-Lys-Gln-Ala-Gly-Asp-Val, reference compound] | -20.0 uM (monomer)/min | 16.4 uM (monomer)/min | 5.2 uM (monomer)/min | 24
GQHHLGGAKQG [GQ-- HHLGGAKQG] | -4.4 uM (monomer)/min | 4.4 uM (monomer)/min | 0.0 uM (monomer)/min | 0
TIGEGQHHLGAKQAGDV [TIGEGQ-- HHL-- GAKQAGDV] | -8.4 uM (monomer)/min | 3.6 uM (monomer)/min | 5.4 uM (monomer)/min | 60
TIGEGQHHLGGAKQAGDV [TIGEGQ-- HHLGGAKQAGDV] | -12.8 uM (monomer)/min | 11.4 uM (monomer)/min | 0.6 uM (monomer)/min | 5

Reference: patent US5939385A, “Transglutaminase cross-linkable polypeptides and methods relating thereto” (ZymoGenetics, Inc., priority 1995, dated 1999)
